This note sets out measurements from US9469615B2, “Quinoxalines and AZA-quinoxalines as CRTH2 receptor modulators” (Merck Sharp & Dohme Corp., priority 2010, dated 2016).

Usually Ki stands for a measure of affinity in units of concentration, obtained from inhibition or displacement. The low end stands for higher affinity, the high end for lower affinity.

This experiment has as its target T1, hCRTH2 (Homo sapiens, UniProt Q9Y5Y4).
T1 construct: expressed in transfected cells; host or cells: HEK (human embryonic kidney) cells expressing hCRTH2; membrane preparation
T1 sequence (Q9Y5Y4 1-395): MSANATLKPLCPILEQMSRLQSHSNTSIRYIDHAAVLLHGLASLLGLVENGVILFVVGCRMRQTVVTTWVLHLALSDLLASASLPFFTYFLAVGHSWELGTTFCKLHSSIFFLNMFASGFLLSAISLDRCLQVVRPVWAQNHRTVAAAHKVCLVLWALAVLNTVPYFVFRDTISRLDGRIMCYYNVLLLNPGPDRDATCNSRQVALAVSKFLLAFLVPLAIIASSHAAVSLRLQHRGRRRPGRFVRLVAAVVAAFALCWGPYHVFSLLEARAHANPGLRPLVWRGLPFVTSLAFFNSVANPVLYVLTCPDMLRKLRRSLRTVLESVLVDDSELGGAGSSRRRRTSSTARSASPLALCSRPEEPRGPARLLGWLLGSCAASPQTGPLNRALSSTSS
Put plainly: Radioligand binding assay ([3H]PGD2 competition, HEK-hCRTH2 membranes). The gist of the method:
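Using membranes of an HEK line stably carrying hCRTH2, ligands were tested against [3H]PGD2 (3.0 nM) in pH 7.4 Tris buffer containing 2 mM MnCl2 and 1 mM EDTA. After one hour at room temperature, filters were washed cold and counted.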

The mark [1] stands for this setting: [3H]PGD2 binding, rated A-E (Table A).
Where [2] appears, read: [3H]PGD2 binding, values in text.

`O=C(O)CCCCc1nc2cc(C(=O)N3CC(c4cccc(F)c4)C3)ccc2nc1-c1ccccc1` [compound 251, 7-[[3-(3-fluorophenyl)-1-azetidinyl]carbonyl]-3-phenyl-2-quinoxalinepentanoic acid]: the Ki is 0.1 to 2 nM under setting [1] and 1 nM under setting [2].
Compound `O=C(O)CCCCc1nc2cc(C(=O)N[C@@H](CCO)c3ccccc3)ccc2nc1-c1ccc(Cl)cc1` [16AR, 3-(4-chlorophenyl)-7-[[(3-hydroxy-1(S)-phenylpropyl)amino]carbonyl]-2-quinoxalinepentanoic acid] showed a Ki under setting [1] of 2.1 to 20 nM.
Still for that read-out and setting: the result for `C[C@H](NC(=O)c1ccc2nc(-c3ccc(Cl)cc3)c(CCCCC(=O)O)nc2c1)c1cccc(F)c1` [compound 179, 3-(4-chlorophenyl)-7-[[[1(S)-(3-fluorophenyl)ethyl]amino]carbony!]-2-quinoxalinepentanoic acid] reads 0.1 to 2 nM.
For the setting “[3H]PGD2 competition, Table B”, `O=C(O)CCCCc1nc2cc(C(=O)N[C@@H]3CCCc4cc(Cl)ccc43)ccc2nc1-c1ccccc1` [compound 386, (R)-5-(7-((6-chloro-1,2,3,4-tetrahydronaphthalen-1-yl)carbamoyl)-3-phenylquinoxalin-2-yl)pentanoic acid] returned a Ki of 0.1 to 2 nM.
Same read-out and setting: the result for `C[C@@H](NC(=O)c1cc2nc(CCCCC(=O)O)c(-c3ccccc3)nc2cc1F)c1ccc(F)cc1` [compound 727, (R)-5-(6-fluoro-7-((1-(4-fluorophenyl)ethyl)carbamoyl)-3-phenylquinoxalin-2-yl)pentanoic acid] reads 2.1 to 20 nM.
Regarding `O=C(O)CCCCc1nc2cc(C(=O)N3CC(OCc4ccccc4)C3)ccc2nc1-c1ccc(Cl)cc1` [compound 323, 5-(7-(3-(benzyloxy)azetidine-1-carbonyl)-3-(4-chlorophenyl)quinoxalin-2-yl)pentanoic acid], the Ki ([3H]PGD2 competition, Table B) was 2.1 to 20 nM.
`O=C(O)Cc1cccc(CCc2nc3cc(C(=O)N4CCC(c5ccccc5)CC4)ccc3nc2-c2ccc(F)cc2)c1` [compound 198, 3-[2-[3-(4-fluorophenyl)-7-[(4-phenyl-1-piperidinyl)carbonyl]-2-quinoxalinyl]ethyl] benzeneacetic acid] gave a Ki under setting [1] of 2.1 to 20 nM.
On to `CC(CCCc1nc2cc(C(=O)N[C@@H]3CCCc4ccccc43)ccc2nc1-c1ccccc1)C(=O)O` (stereo partly drawn) [compound 453, 2-methyl-5-(3-phenyl-7-(((R)-1-yl)carbamoyl)quinoxalin-2-yl)pentanoic acid], for which, for the setting “[3H]PGD2 competition, Table B”, the Ki was 2.1 to 20 nM.
The compound `O=C(O)CCCCc1nc2cc(C(=O)N3CCC(c4ccccc4)C3)ccc2nc1-c1cc(F)cc(F)c1` (stereo not drawn) [26i, 3-(3,5-difluorophenyl)-7-[(3-phenyl-1-pyrrolidinyl)carbonyl]-2-quinoxalinepentanoic acid] had a Ki under setting [1] of 2.1 to 20 nM.
Under “[3H]PGD2 competition, Table B”, `Cc1cccc(N2CCN(C(=O)c3ccc4nc(-c5ccc(Cl)cc5)c(CCCCC(=O)O)nc4c3)CC2)c1` [compound 620, 5-(3-(4-chlorophenyl)-7-(4-(m-tolyl)piperazine-1-carbonyl)quinoxalin-2-yl)pentanoic acid] showed a Ki of 0.1 to 2 nM.
On the same count and under the same terms, the result for `C[C@H](CCc1nc2cc(C(=O)N(C)Cc3ccc(F)cc3)ccc2nc1-c1ccccc1)CC(=O)O` [compound 283, (R)-5-(7-((4-fluorobenzyl)(methyl)carbamoyl)-3-phenylquinoxalin-2-yl)-3-methylpentanoic acid] reads 201 to 700 nM.
Turning to `O=C(O)CCCCc1nc2cc(C(=O)N3CC(c4ccc(F)cc4)C3)ccc2nc1-c1ccccc1` [compound 250, 7-[[3-(4-fluorophenyl)-1-azetidinyl]carbonyl]-3-phenyl-2-quinoxalinepentanoic acid], the Ki under setting [1] was 0.1 to 2 nM.
Turning to `O=C(O)CCCCc1nc2cc(C(=O)NC3CSc4ccccc43)ccc2nc1-c1ccc(Cl)cc1` (stereo not drawn) [compound 331, 5-(3-(4-chlorophenyl)-7-((2,3-dihydrobenzo[b]thiophen-3-yl)carbamoyl)quinoxalin-2-yl)pentanoic acid], the Ki ([3H]PGD2 competition, Table B) was in the range of 2.1 to 20 nM.
The same measure, in the same setting: the result for `O=C(O)CCCCc1nc2cc(C(=O)N[C@H](CO)c3ccc(F)cc3)ccc2nc1-c1ccccc1` [compound 688, (S)-5-(7-((1-(4-fluorophenyl)-2-hydroxyethyl)carbamoyl)-3-phenylquinoxalin-2-yl)pentanoic acid] reads 20.1 to 200 nM.
With `CN1CC2(CCN(C(=O)c3ccc4nc(-c5ccccc5)c(CCCCC(=O)O)nc4c3)CC2)c2ccccc21` [compound 122, 7-[(1,2-dihydro-1-methylspiro[3H-indole-3,4′-piperidin]-1′-yl)carbonyl]-3-phenyl-2-quinoxalinepentanoic acid], the Ki under setting [1] lay in the range of 2.1 to 20 nM.
Same read-out and setting: the result for `COc1ccc(C(C)NC(=O)c2ccc3nc(-c4ccccc4)c(CCCCC(=O)O)nc3c2)cc1` (stereo not drawn) [15AU, 5-(7-{[1-(4-methoxyphenyl)ethyl]carbamoyl}-3-phenyl-quinoxalin-2-yl) pentanoic acid] reads 2.1 to 20 nM.
In the case of `CC1(C)CC[C@@H](NC(=O)c2ccc3nc(-c4ccccc4)c(CCCCC(=O)O)nc3c2)c2ccccc21` [compound 722, (R)-5-(7-((4,4-dimethyl-1,2,3,4-tetrahydronaphthalen-1-yl)carbamoyl)-3-phenylquinoxalin-2-yl)pentanoic acid], the Ki ([3H]PGD2 competition, Table B) was 2.1 to 20 nM.
`N#Cc1ccc2c(c1)OCC[C@@H]2NC(=O)c1ccc2nc(-c3ccc(Cl)cc3)c(CCCCC(=O)O)nc2c1` [compound 333, (S)-5-(3-(4-chlorophenyl)-7-((7-cyanochroman-4-yl)carbamoyl)quinoxalin-2-yl)pentanoic acid.] had an inhibition constant (Ki) ([3H]PGD2 competition, Table B) of 2.1 to 20 nM.
With `O=C(O)CCCCc1nc2cc(C(=O)N3CCC(n4ccnc4)CC3)ccc2nc1-c1ccccc1` [compound 145, 5-(7-(4-(1H-imidazol-1-yl)piperidine-l-carbonyl)-3-phenylquinoxalin-2-yl)pentanoic acid], the Ki under setting [1] was in the range of 2.1 to 20 nM.
Still for that read-out and setting: the result for `O=C(O)CCCCc1nc2cc(C(=O)NCc3ccc(F)cc3)ccc2nc1-c1ccc(Cl)cc1` [16R, 3-(4-chlorophenyl)-7-[[[(4-fluorophenyl)methyl]amino]carbonyl]-2-quinoxalinepentanoic acid] reads 0.1 to 2 nM; that for `N#Cc1ccc(C2CN(C(=O)c3ccc4nc(-c5ccccc5)c(CCCCC(=O)O)nc4c3)C2)cc1` [compound 174, 7-[[3-(4-cyanophenyl)-1-azetidinyl]carbonyl]-3-phenyl-2-quinoxalinepentanoic acid], 0.1 to 2 nM.
Turning to `C[C@H](CCc1nc2cc(C(=O)N3CCN(c4ccccc4)CC3)ccc2nc1-c1ccccc1)CC(=O)O` [compound 280, (R)-3-methyl-5-(3-phenyl-7-(4-phenylpiperazine-1-carbonyl)quinoxalin-2-yl)pentanoic acid], for the setting “[3H]PGD2 competition, Table B”, the Ki lay within 701 to 2300 nM.
Take `C[C@@H](NC(=O)c1ccc2nc(-c3ccc(Cl)cc3)c(CCCCC(=O)O)nc2c1)c1ccc2ccccc2c1` [compound 495, (R)-5-(3-(4-chlorophenyl)-7-((1-(naphthalen-2-yl)ethyl)carbamoyl)quinoxalin-2-yl)pentanoic acid]: the inhibition constant (Ki) ([3H]PGD2 competition, Table B) is 2.1 to 20 nM.
With `C[C@@H](NC(=O)c1ccc2nc(-c3ccccc3)c(CCCC(=O)O)nc2c1)c1ccc(F)cc1` [compound 36, (R)-4-(7-((1-(4-fluorophenyl)ethyl)carbamoyl)-3-phenylquinoxalin-2-yl)butanoic acid], the Ki by setting is: under setting [1], 701 to 2300 nM; under setting [2], 716 nM.
Take `O=C(O)CCCCc1nc2cc(C(=O)N3CCC4(CCOC4)CC3)ccc2nc1-c1ccc(Cl)cc1` [compound 340, 5-(3-(4-chlorophenyl)-7-(2-oxa-8-azaspiro[4.5]decane-8-carbonyl)quinoxalin-2-yl)pentanoic acid]: the Ki ([3H]PGD2 competition, Table B) was in the range of 2.1 to 20 nM.
